biological target: T1, Trypsin (type 1× from porcine pancreas) (Sus scrofa, UniProt P00761); assay: Trypsin Assay; type: biochemical; set-up: % Inhibition Trypsin II @ 1: concentration or dose not given beside the values; details: @ 1
T1 construct: Trypsin (5 ug/ml; type 1× from porcine pancreas); purchased Sigma, St. Louis Mo; host or cells: porcine pancreas
T1 sequence (P00761 9-231): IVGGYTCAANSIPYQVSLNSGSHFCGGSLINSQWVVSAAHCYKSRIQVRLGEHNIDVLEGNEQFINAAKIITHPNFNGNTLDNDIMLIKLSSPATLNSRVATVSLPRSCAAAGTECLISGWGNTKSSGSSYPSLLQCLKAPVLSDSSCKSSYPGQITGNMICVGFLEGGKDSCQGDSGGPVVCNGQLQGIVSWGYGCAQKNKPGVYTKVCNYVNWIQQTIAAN

| SMILES | % Inhibition Trypsin II @ 1 [% @ 1] |
| --- | --- |
| CC(C)CNc1nc(Cl)c(-c2ccccc2)n(CC(=O)NCc2ccc(C(=N)N)cc2)c1=O [1507-32] | 0 |
| N=C(N)c1ccc(CNC(=O)Cn2c(-c3cccc(N)c3)c(Cl)nc(NCCc3ccccc3)c2=O)cc1 [Example 86] | 78 |
| N=C(N)c1ccc(CNC(=O)Cn2c(-c3ccccc3)c(Cl)nc(NC(Cc3ccccc3)c3ccccc3)c2=O)cc1 (stereo not shown) [1507-07] | 7 |
| N=C(N)c1ccc(CNC(=O)Cn2c(-c3ccccc3)c(Cl)nc(NCc3ccc(Br)cc3)c2=O)cc1 [1507-30] | 0 |
| COc1ccc(CNc2nc(Cl)c(-c3ccccc3)n(CC(=O)NCc3ccc(C(=N)N)cc3)c2=O)cc1 [1507-13] | 8 |
| N=C(N)c1ccc(CNC(=O)Cn2c(-c3ccccc3)c(Cl)nc(NCCc3ccc(Br)cc3)c2=O)cc1 [1507-06] | 8 |
| COc1cccc(CCNc2nc(Cl)c(-c3ccccc3)n(CC(=O)NCc3ccc(C(=N)N)cc3)c2=O)c1 [1507-12] | 12 |
| N=C(N)c1ccc(CNC(=O)Cn2c(-c3ccccc3)c(Cl)nc(NCc3cccc4ccccc34)c2=O)cc1 [1507-28] | 1 |
| C[C@H](Nc1nc(Cl)c(-c2ccccc2)n(CC(=O)NCc2ccc(C(=N)N)cc2)c1=O)c1ccccc1 [1507-34] | 0 |
| N=C(N)c1ccc(CNC(=O)Cn2c(-c3ccccc3)c(Cl)nc(NCc3cccc(F)c3)c2=O)cc1 [1507-42] | 0 |
| N=C(N)c1ccc(CNC(=O)Cn2c(-c3ccccc3)c(Cl)nc(NCc3cccc(Cl)c3)c2=O)cc1 [1507-38] | 0 |
| N=C(N)c1ccc(CNC(=O)Cn2c(-c3ccccc3)c(Cl)nc(NCc3ccc(OC(F)(F)F)cc3)c2=O)cc1 [1507-04] | 9 |
| Cc1ccc(CCNc2nc(Cl)c(-c3ccccc3)n(CC(=O)NCc3ccc(C(=N)N)cc3)c2=O)cc1 [1507-45] | 0 |
| N=C(N)c1ccc(CNC(=O)Cn2c(-c3ccccc3)c(Cl)nc(NCCc3cccs3)c2=O)cc1 [1507-18] | 6 |
| N=C(N)c1ccc(CNC(=O)Cn2c(-c3ccccc3)c(Cl)nc(NCc3ccccc3C(F)(F)F)c2=O)cc1 [1507-15] | 11 |
| N=C(N)c1ccc(CNC(=O)Cn2c(-c3ccccc3)c(Cl)nc(NC3CCCC3)c2=O)cc1 [1507-25] | 60 |
| N=C(N)c1ccc(CNC(=O)Cn2c(-c3ccccc3)c(Cl)nc(NCc3ccc(F)cc3F)c2=O)cc1 [1507-26] | 11 |

same assay, conditions: at 30 µM

| SMILES | % Inhibition Trypsin II (30 µM) |
| --- | --- |
| Cc1c(Cl)nc(NCCc2ccc(Cl)cc2)c(=O)n1CC(=O)NCc1ccc(C(=N)N)cc1 [1471-2] | 0% |
| N=C(N)c1ccc(CNC(=O)Cn2c(-c3ccccc3)c(Cl)nc(NCc3ccccn3)c2=O)cc1 [1507-24] | 25% @ 30 |
| Nc1cccc(-c2c(Cl)nc(NC3CCC3)c(=O)n2CC(=O)NCc2ccccc2)c1 [Example 99] | 7% @ 30 |
| CC(C)Nc1nc(Cl)c(-c2cccc([N+](=O)[O-])c2)n(CC(=O)NCc2ccc(C(N)=NO)cc2)c1=O [Example 61] | 10% |
| Nc1cccc(-c2c(Cl)nc(NC3CCC3)c(=O)n2CC(=O)NCCc2ccccc2)c1 [Example 89] | 9% @ 30 |
| N=C(N)NCC#CCNC(=O)Cn1c(-c2ccccc2)cnc(NCCc2ccccc2)c1=O [Example 36] | 30% |

same assay, conditions: at 30 µM; cells with % sign

| SMILES | % Inhibition Trypsin II (30 µM) [%] |
| --- | --- |
| N=C(N)c1ccc(CNC(=O)Cn2c(-c3ccccc3)c(Cl)nc(NCC3CC3)c2=O)cc1 [Example 1517-43] | 43 |

same assay, conditions: inhibitor at 100 νM

| SMILES | % Inhibition Trpysin II (100 νM) [%] |
| --- | --- |
| COc1ccc(-c2c(Cl)nc(NCCc3ccccc3)c(=O)n2CC(=O)NCCc2ccncc2)cc1 [Example E-0100] | 12 |
